# Literature values in patent publication US20140221306A1 (Santen Pharmaceutical Co. Ltd, priority 2010, published 2014).
# Key:
# [1] = tested on: dry eye patients; conditions: instillation of an ophthalmic solution; Cornea, 23(8), 784-792 (2004)
# [2] = disclosed in Japanese Patent No. 3652707 (PTD 1)
structure (smiles),measurement,setting,value
O=c1ccn([C@@H]2O[C@H](COP(=O)([O-])OP(=O)([O-])OP(=O)([O-])OP(=O)([O-])OC[C@H]3O[C@@H](n4ccc(=O)[nH]c4=O)[C@H](O)[C@@H]3O)[C@@H](O)[C@H]2O)c(=O)[nH]1.[Na+].[Na+].[Na+].[Na+] [diquafosol tetrasodium salt],corneal epithelium disorder of dry eye patients,[1],improved corneal epithelium disorder
"O=c1ccn([C@@H]2O[C@H](COP(=O)(O)OP(=O)(O)OP(=O)(O)OP(=O)(O)OC[C@H]3O[C@@H](n4ccc(=O)[nH]c4=O)C(O)C3O)C(O)C2O)c(=O)[nH]1 (some centres unmarked) [Diquafosol, P^1,P^4-di(uridine-5′)tetraphosphate]",effect on secretion of tears,[2],effect of stimulating secretion of tears
